Data on 28 compounds can be found in patent US4202941A, “Glycerol oxidase and process for the production thereof and method for the quantitative determination of glycerol by glycerol oxidase” (Kyowa Hakko Kogyo, Co. Ltd., priority 1977, dated 1980).

Structures are written as SMILES. Read-outs that look alike come from different tables or passages of the source.

The test system of experiment [1] is Enzyme of the genus Neurospora (glycerol oxidase). Kind of experiment: Substrate specificity, relative activity by 4-AA method. The following applies: substrate equimolar to glycerol. Format: biochemical, Neurospora crassa KY-462. The method, then: (§1) The enzyme activity is expressed by "unit." A "unit" of the enzyme activity is defined as that amount of enzyme which will decompose 1μ mole of glycerol at 37° C. in 1 minute in the presence of oxygen. The determination of the enzyme activity is carried out as follows: glycerol is reacted with glycerol oxidase with stirring to form hydrogen peroxide, and 4-aminoantipyrine and phenol are reacted with the resulting hydrogen peroxide in the presence of peroxidase to derive quinoneimine pigment. The optical density at 500 nm of the resulting quinoneimine pigment is measured to determine the amount of generated hydrogen peroxide, whereby the enzyme activity is determined (which will be hereinafter referred to as "4-AA method").
(§2) Enzymological and physico-chemical properties of glycerol oxidase thus obtained are described below (as glycerol oxidase, the respective purified preparates obtained in Examples 1 and 2, are used).
(§3) The relative activity is measured using other substrates in equimolar amounts to that of glycerol in the procedure for measuring the activity according to 4-AA method.
(§4) The relative activities on other substrates are given in Table 3, the activity on glycerol being defined as 100.
(§5) The reagents (1)-(6) are mixed in a test tube, and then shaken at 37° C. for 5 minutes. Then, enzyme solution is added thereto, and thus obtained mixture is made up to 3 ml with ammonium buffer solution. Reaction is carried out at 37° C. for 10 minutes with shaking. On the other hand, similar procedure is repeated using water in place of the test solution as a reference. The optical density of the reaction solution at 500 nm is measured, and a difference from the control is determined as Δ OD (optical density).

The test system of experiment [2] is Enzyme of the genus Aspergillus (glycerol oxidase). The description is as above. The experiment is classed as biochemical, Aspergillus japonicus KY-45. To be noted: substrate equimolar to glycerol. The method, then:
as §1, §2, §3, §4, §5

The test system of experiment [3] is Enzyme of the genus Neurospora (glycerol oxidase). Kind of experiment: Inhibition of enzyme activity by 1 mM inhibitors (4-AA method). The experiment is classed as biochemical, Neurospora crassa KY-462. Also noted: key: % of activity without inhibitor (no inhibitor = 100). The method, then: as §1
(§6) Enzymes activities obtained by adding 1 mM of various inhibitors are shown in Table 1, the activity of the enzyme with no addition of the inhibitor being defined as 100. The activities are measured according to 4-AA method deriving a pigment of 4-aminoantipyrine system from the generated H2 O2.
as §2
(§7) Determination of the enzyme activity is carried out by reacting hydrogen peroxide generated by the enzyme with 4-aminoantipyrine and phenol in the presence of peroxidase to obtain quinoneimine pigment, and quantitatively determining the resulting quinoneimine pigment.
as §5
(§8) On the other hand, the absorption coefficient of 0.5 mM of quinoneimine pigment is reported as 5.33 [Clin. Chem. 20, 470 (1974)], and thus, if the optical density (Δ OD) at 500 nm of 3 ml of the reaction solution obtained according to the foregoing operational procedure IV-(c) is represented by a, the desired enzyme activity (A) per milliliter of the enzyme solution is calculated from the following formula: [formula]

The test system of experiment [4] is Enzyme of the genus Aspergillus (glycerol oxidase). The description is as above. The experiment is classed as biochemical, Aspergillus japonicus KY-45. Also noted: key: % of activity without inhibitor (no inhibitor = 100). The method, then: as §1, §6, §2, §7, §5, §8
Where [5] appears, read: 1 mM inhibitor, Enzyme of the genus Neurospora, 4-AA method.
[6] abbreviates: 1 mM inhibitor, Enzyme of the genus Aspergillus, 4-AA method.

Consider `CC(C)O` [isopropyl alcohol], for which the “Relative activity on substrate (activity on glycerol defined as 100)” value (from here on “Relative activity on substrate”) in experiment [1] and in experiment [2] was 0 each time.
With `O=S(=O)([O-])[O-].[Zn+2]` [ZnSO4], in experiment [3] (setting [5]), the “Enzyme activity on adding inhibitor (activity with no inhibitor defined as 100)” value stood at 23.
As to `O=C(O)CN(CCN(CC(=O)O)CC(=O)O)CC(=O)O` [EDTA], the “Enzyme activity on adding inhibitor (activity with no inhibitor defined as 100)” value in experiment [3] (setting [5]) amounted to 80; in experiment [4], 105.
With `CC(O)C(C)O` (stereo not shown) [2,3-butanediol], the “Relative activity on substrate” value came to 0 in experiment [1] and 0.3 in experiment [2].
Taken in the same sequence, the figures for `OCCCCO` [1,4-butanediol] were 0 and 0.3.
Turning to `Oc1cccc2cccnc12` [8-hydroxyquinoline], the “Enzyme activity on adding inhibitor (activity with no inhibitor defined as 100)” value in experiment [4] amounted to 90.
With `N[C@@H](CS)C(=O)O` [cysteine], the “Enzyme activity on adding inhibitor (activity with no inhibitor defined as 100)” value in experiment [3] (setting [5]) was determined as 60.
Turning to `CCCO` [n-propyl alcohol], the “Relative activity on substrate” value in experiment [1] and in experiment [2] was 0 in each case.
As to `O=S(=O)([O-])[O-].[Fe+2]` [FeSO4], the “Enzyme activity on adding inhibitor (activity with no inhibitor defined as 100)” value in experiment [3] (setting [5]) worked out at 0.
As for `O=C(O)c1cc[c]([Hg][Cl])cc1` [PCMB, p-chloromercuribenzoate], the “Enzyme activity on adding inhibitor (activity with no inhibitor defined as 100)” value in experiment [3] (setting [5]) worked out at 108; in experiment [4] (setting [6]), 50.
Taken in the same sequence, the figures for `Cl.NO` [NH2 OH--HCl] were 0 and 0.
Turning to `O[C@H](CS)[C@H](O)CS` (racemic) [dithiothreitol], the “Enzyme activity on adding inhibitor (activity with no inhibitor defined as 100)” value in experiment [4] (setting [6]) was determined as 100.
`CC(O)CCO` (stereo not shown) [1,3-butanediol]: the results for the “Relative activity on substrate” value in experiment [1] and in experiment [2] were 0 and 2.0, respectively.
Turning to `O=C(O)CI` [iodoacetate], the “Enzyme activity on adding inhibitor (activity with no inhibitor defined as 100)” value in experiment [3] worked out at 100.
`c1cnc2c(c1)ccc1cccnc12` [0-phenanthroline]: in experiment [4] (setting [6]), the “Enzyme activity on adding inhibitor (activity with no inhibitor defined as 100)” value worked out at 90.
`CC(O)CO` (stereo not shown) [1,2-propanediol]: the “Relative activity on substrate” value came out at 0 in experiment [1] and 10.5 in experiment [2].
Turning to `CC(=O)[O-].CC(=O)[O-].[Pb+2]` [Pb(CH3 COO)2], in experiment [4] (setting [6]), the “Enzyme activity on adding inhibitor (activity with no inhibitor defined as 100)” value is listed as 15.
Consider `O=S(=O)([O-])[O-].[Cu+2]` [CuSO4], for which the “Enzyme activity on adding inhibitor (activity with no inhibitor defined as 100)” value in experiment [3] (setting [5]) came to 20; in experiment [4] (setting [6]), 10.
As to `c1ccc(-c2ccccn2)nc1` [α,α'-dipyridyl], the “Enzyme activity on adding inhibitor (activity with no inhibitor defined as 100)” value in experiment [4] (setting [6]) was found to be 85.
`[Cl][Hg][Cl]` [HgCl2]: the “Enzyme activity on adding inhibitor (activity with no inhibitor defined as 100)” value in experiment [3] (setting [5]) was 23; in experiment [4] (setting [6]) it was 20.
Regarding `CCO` [ethanol], the “Relative activity on substrate” value in experiment [1] and in experiment [2] was 0 throughout.
For the compound `OCC(O)CO` [glycerol], the “Relative activity on substrate” value in experiment [1] and in experiment [2] was 100 in each case.
`O=P(O)(O)OCC(O)CO` (stereo not shown) [Glycerol-3-phosphoric acid]: the “Relative activity on substrate” value in experiment [1] is 21; in experiment [2], 0.4.
Take `[N-]=[N+]=[N-].[Na+]` [NaN3]: in experiment [4] (setting [6]), the “Enzyme activity on adding inhibitor (activity with no inhibitor defined as 100)” value stood at 20.
In the case of `OCCCO` [1,3-propanediol], the “Relative activity on substrate” value in experiment [1] stood at 0; in experiment [2], 3.3.
Take `O=[N+]([O-])[O-].[Ag+]` [AgNO3]: the “Enzyme activity on adding inhibitor (activity with no inhibitor defined as 100)” value in experiment [4] (setting [6]) was found to be 30.
On the same count and under the same terms, as for `CCN1C(=O)C=CC1=O` [N-ethylmaleimide], the figure is 100; as for `Cc1ccc2ccc3ccc(C)nc3c2n1` [neocuproine], 100.
